Measurements published in patent publication US10112954B2, “Bicyclic heteroaryl derivatives having inhibitory activity for protein kinase” (HANMI PHARM. CO., LTD., priority 2010, dated 2018).

Assays:
FGFR1 = biological target: T1, FGFR1 (Homo sapiens, UniProt P11362); assay: Inhibition of FGFR1 kinase (fluorescence polarization kinase assay); type: biochemical; conditions: Table 2, class symbols; read-out: FGFR1 IC50
T1 construct: purchased Upstate Company
Description: (§1) Inhibition activities of kinases of the inventive compounds (test compounds) prepared in the Examples were assessed and represented as IC50 values.
(§2) Kinases used in Test Examples 1 to 3 were purchased from Upstate Company.
(§3) 100 mM HEPES (pH 7.4), 25 mM MgCl2, 10 mM MnCl2 and 250 μM Na3VO4 were mixed to prepare a kinase buffer. Each of kinases to be measured was diluted to a concentration of 25˜300 ng per one reaction according to its activity with the kinase buffer. Also, each of the test compounds was serially diluted to a concentration starting from 100 nM up to 0.1 nM with the kinase buffer. 10 μl of the serially diluted solution of each of the test compounds and 10 μl of the diluted kinase were added to each well of a 96-well microplate, and the plate was incubated at room temperature for 10 mins. 10 μl of a substrate and 10 μl of ATP were successively added thereto to initiate a kinase reaction, and the resulting mixture was incubated at room temperature for 1 hour. The ATP was used in a form of a solution diluted to a concentration determined according to a kinase's Km value with distilled water. 10˜100 ng/mL poly(Glu, Tyr) 4:1 (Sigma) was used as the substrate. 10 μl of 6 mM EDTA was added to each well and stirred for 5 mins to terminate the kinase reaction. For a measurement of phosphorylation degree, 50 μl of a solution containing anti-phosphotyrosine antibody and fluorescein-labeled phosphopeptide was added to the reaction mixture, followed by incubating for 30 mins. The FP (fluorescence polarization) value of each well was determined with a Victor™ D fluorescence meter (Perkin Elmer Lifesciences).
(§4) IC50, the concentration at which 50% inhibition occurs, was evaluated based on the difference between the final concentration of the test cells and the initial concentration of the cells incubated in a well not-treated with the test compound which was regarded as 100%. IC50 values of the test compounds on the FGFR kinase were shown in Table 2, and those of the test compound obtained in Example 177 on various kinases, in Table 3.

FGFR3 = biological target: T2, FGFR3 (Homo sapiens, UniProt P22607); assay: Inhibition of FGFR3 kinase (fluorescence polarization kinase assay); type: biochemical; conditions: Table 2, class symbols; read-out: FGFR3 IC50
T2 construct: purchased Upstate Company
Description: as §1, §2, §3, §4

T1 sequence (P11362 22-822, species assumed): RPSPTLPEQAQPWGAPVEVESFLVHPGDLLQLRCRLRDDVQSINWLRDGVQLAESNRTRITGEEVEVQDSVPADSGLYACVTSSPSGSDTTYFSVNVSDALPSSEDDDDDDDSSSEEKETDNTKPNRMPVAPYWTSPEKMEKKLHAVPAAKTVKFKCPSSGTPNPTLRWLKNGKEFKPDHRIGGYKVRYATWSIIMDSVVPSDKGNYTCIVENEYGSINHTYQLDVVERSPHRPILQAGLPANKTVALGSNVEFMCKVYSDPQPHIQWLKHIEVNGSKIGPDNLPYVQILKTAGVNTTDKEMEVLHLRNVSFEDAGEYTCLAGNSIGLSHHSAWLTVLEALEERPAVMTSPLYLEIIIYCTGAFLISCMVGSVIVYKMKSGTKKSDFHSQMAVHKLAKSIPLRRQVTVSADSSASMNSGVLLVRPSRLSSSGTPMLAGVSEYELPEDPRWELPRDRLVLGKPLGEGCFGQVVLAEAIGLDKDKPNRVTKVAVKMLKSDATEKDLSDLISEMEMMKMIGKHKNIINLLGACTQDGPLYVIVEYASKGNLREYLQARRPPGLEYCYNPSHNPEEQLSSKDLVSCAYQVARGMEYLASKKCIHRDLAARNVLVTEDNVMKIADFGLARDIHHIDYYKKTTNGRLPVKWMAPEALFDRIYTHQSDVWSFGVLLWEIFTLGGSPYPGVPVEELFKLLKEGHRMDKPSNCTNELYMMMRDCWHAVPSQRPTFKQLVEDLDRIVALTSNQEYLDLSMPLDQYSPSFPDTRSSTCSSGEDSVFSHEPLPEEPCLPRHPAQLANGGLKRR
T2 sequence (P22607 23-806, species assumed): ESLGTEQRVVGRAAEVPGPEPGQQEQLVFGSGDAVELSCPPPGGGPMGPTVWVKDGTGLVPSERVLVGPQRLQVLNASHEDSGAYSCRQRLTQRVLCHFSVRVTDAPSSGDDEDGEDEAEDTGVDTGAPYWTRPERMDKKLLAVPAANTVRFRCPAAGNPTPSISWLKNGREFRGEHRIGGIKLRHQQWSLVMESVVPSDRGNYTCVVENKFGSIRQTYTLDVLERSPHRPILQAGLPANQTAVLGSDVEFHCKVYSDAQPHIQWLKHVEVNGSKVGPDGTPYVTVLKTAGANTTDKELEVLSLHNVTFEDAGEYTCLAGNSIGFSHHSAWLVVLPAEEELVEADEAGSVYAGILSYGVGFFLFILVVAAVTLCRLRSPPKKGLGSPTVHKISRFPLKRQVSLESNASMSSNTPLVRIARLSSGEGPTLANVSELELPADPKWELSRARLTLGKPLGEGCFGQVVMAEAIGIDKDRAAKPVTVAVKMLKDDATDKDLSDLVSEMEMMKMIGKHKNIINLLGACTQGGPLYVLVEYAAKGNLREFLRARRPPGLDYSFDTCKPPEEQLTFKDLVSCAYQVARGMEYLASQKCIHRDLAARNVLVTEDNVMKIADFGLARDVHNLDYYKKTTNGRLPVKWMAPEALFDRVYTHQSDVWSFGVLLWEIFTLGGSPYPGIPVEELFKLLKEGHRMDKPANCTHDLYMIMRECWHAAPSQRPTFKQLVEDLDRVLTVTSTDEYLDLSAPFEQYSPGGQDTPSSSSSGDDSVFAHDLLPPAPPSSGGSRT

IC50 (FGFR1) | IC50 (FGFR3) | SMILES
1000 to 5000 nM | 1000 to 5000 nM | COc1cc(OC)c(Cl)c(NC(=O)c2csc3c(NCCNc4ccccc4)ncnc23)c1Cl [Example 304, N-(2,6-dichloro-3,5-dimethoxyphenyl)-4-(2-(phenylamino)ethyl-amino)thieno[3,2-d]pyrimidine-7-carboxamide]
1 to 100 nM | 500 to 1000 nM | COc1cc(OC)c(Cl)c(NC(=O)c2csc3c(Nc4ccc5cn[nH]c5c4)ncnc23)c1Cl [Example 229, 4-(1H-indazol-6-ylamino)-N-(2,6-dichloro-3,5-dimethoxyphenyl) thieno[3,2-d]pyrimidine-7-carboxamide]
500 to 1000 nM | 500 to 1000 nM | COc1cc(OC)c(Cl)c(NC(=O)c2csc3c(Nc4nc5ccc(C)cc5s4)ncnc23)c1Cl [Example 225, N-(2,6-dichloro-3,5-dimethoxyphenyl)-4-(6-methylbenzo[d]thiazol-2-ylamino)thieno[3,2-d]pyrimidine-7-carboxamide]
100 to 500 nM | 1 to 100 nM | COc1cc(OC)c(Cl)c(NC(=O)c2csc3c(Nc4ccc(N5CCC(N6CCCC6)CC5)cc4)ncnc23)c1Cl [Example 202, N-(2,6-dichloro-3,5-dimethoxyphenyl)-4-(4-(4-(pyrrolidin-1-yl)piperidin-1-yl)phenylamino) thieno[3,2-d]pyrimidine-7-carboxamide]
